Test results from US20220348981A1, “ASSAY OF ARYLSULFATASE A ENZYMATIC ACTIVITY IN DRIED BLOOD SPOTS BY MASS SPECTROMETRY AND FLUOROMETRY” (University of Washington, priority 2019, published 2022).

Tests used:
[1] = molecular target: T1, arylsulfatase A (ARSA) (Homo sapiens, UniProt P15289); assay: ARSA leukocyte assay by LC-MS/MS with deuterated sulfatide substrate; format: biochemical; details: for effect on ARSA activity: additive in assay buffer, increasing amount (Ce(acetate)3 0 to 20 mM)
T1 construct: the assay is able to detect ARSA enzymatic activity in lysates of mixed leukocytes (mainly lymphocytes) by LC-MS/MS; endogenous in cells; host or cells: mixed leukocytes (mainly lymphocytes) prepared from K2EDTA venous blood; lysate, 2 µg protein per assay
T1 sequence (P15289 19-507): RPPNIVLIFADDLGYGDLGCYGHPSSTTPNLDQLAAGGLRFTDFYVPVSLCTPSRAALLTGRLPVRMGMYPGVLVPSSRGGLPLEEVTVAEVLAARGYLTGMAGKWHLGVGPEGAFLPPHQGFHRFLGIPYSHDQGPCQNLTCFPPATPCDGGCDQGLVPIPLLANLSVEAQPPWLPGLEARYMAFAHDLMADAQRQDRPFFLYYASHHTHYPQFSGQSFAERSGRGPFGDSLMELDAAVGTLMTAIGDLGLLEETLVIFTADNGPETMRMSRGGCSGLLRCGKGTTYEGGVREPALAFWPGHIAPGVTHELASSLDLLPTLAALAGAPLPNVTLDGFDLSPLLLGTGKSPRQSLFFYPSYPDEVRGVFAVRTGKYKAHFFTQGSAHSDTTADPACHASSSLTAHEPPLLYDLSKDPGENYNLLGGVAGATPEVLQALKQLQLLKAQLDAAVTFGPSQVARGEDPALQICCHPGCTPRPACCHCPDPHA
Protocol: Development of a new ARSA leukocyte assay. Recently, Han et al. reported the detection of ARSA enzymatic activity where a natural substrate, C18:0-sulfatide, was incubated with leukocyte lysate in buffer containing sodium taurodeoxycholate as detergent (Han, M.; Jun, S. H.; Song, S. H.; Park, H. D.; Park, K. U.; Song, J., Ultra-performance liquid chromatography-tandem mass spectrometry measurement of leukocyte arylsulfatase A activity using a natural substrate. Ann Lab Med 2015, 35 (1), 165-8). As described herein, in the present assay, the deuterium labeled sulfatide d3-C18:0-sulfatide was used as substrate so that the enzymatic product (d3-C18:0-galactosyl-ceramide) also carried the three deuterium labels, and could be selectively quantified without being interfered by the endogenous galactosyl-ceramide. Using this approach, the assay is able to detect ARSA enzymatic activity in lysates of mixed leukocytes (mainly lymphocytes) by LC-MS/MS. […] If leukocyte lysate was omitted, no discernable product peak was observed above the baseline noise (data not shown). […] Because detergent was present in the assay buffer, MLD patients that are due to dysfunctional Saposin B protein will not be detected with this assay, but these variants are very rare among MLD patients (less than 5%). In the Han et al. report, MnCl2 was added to the buffer at a concentration of 33 mM. […] Barium or cerium […] are often used to assay sulfatases in complex matrices to sequester inorganic sulfate and phosphate ions, which are potent inhibitors of sulfatases. […] The ARSA activity was pH dependent with an optimal pH at 4.5. […] The pH optimum of ARSA and the KM value found agreed with the previous reports. […]
Enzymatic activity calculation. ARSA activity in leukocyte (nmol/h/mg protein) was calculated by multiplying the ion ratio of ARSA product to ARSA internal standard (blank subtracted) by the nanomoles of internal standard added to the assay, then dividing by the incubation time (h) and the amount of leukocyte protein used (mg). […]

[2] = molecular target: T1, arylsulfatase A (ARSA); assay: ARSA assay with a 3 mm DBS punch, no purification; format: biochemical; details: 5 mM added to the assay buffer; data not shown
Protocol: Application of ARSA assay to DBS extracts purified by immune-precipitation. Initial attempts to detect ARSA enzymatic activity in DBS were unsuccessful. When the leukocyte lysate was substituted with a 3 mm DBS punch in the ARSA assay, no ARSA activity could be detected. Moreover, no ARSA activity was observed when leukocyte lysate was co-incubated with a DBS punch, whereas activity was seen when the leukocyte was incubated with a filter paper punch lacking blood matrix (data not shown). This indicated the presence of some ARSA inhibitor(s) in whole blood.

| Compound | effect on ARSA activity [1] | rescue of ARSA activity in DBS [2] | Km ([1]; leukocyte lysate, substrate concentration varied, hyperbolic kinetics, pH 4.5) [µM] |
| --- | --- | --- | --- |
| CC(=O)[O-].CC(=O)[O-].CC(=O)[O-].[Ce+3] [Ce(acetate)3] | decrease | did not rescue ARSA activity | – |
| [Cl][Mn][Cl] [MnCl2] | decrease with increasing amount | – | – |
| CC(=O)[O-].CC(=O)[O-].[Pd+2] [Pd(Acetate)2] | – | did not rescue ARSA activity | – |
| d3-C18:0-sulfatide | – | – | 83 |
